Assay results taken from patent US20250290915A1, “METHOD FOR PREDICTING RESPONSIVENESS TO THERAPY” (CANCERTAIN LIMITED, priority 2022, published 2025).

Legend:
Format in all cases: cell-based, human
[1] = tested on: Circulating Tumour Cells (CTCs) from a patient with rectal cancer (anorectal carcinoma with secondary lung cancer); assay: Drug response score assay on CTCs (with CD45+ cells for immunotherapy) from blood, Example 3; details: for Drug response score, conc. 1: conc. 1: Pembro 20 μg/ml, Nivo 20 μg/ml (CTCs + CD45+ cells), Lenva 50 ng/ml, Regor 60 μg/ml (CTCs); for Drug response score, conc. 1 / Drug response score, conc. 2 / Drug response score, conc. 3 / Drug response score, conc. 4: t96h; for Drug response score, conc. 2: conc. 2: Pembro 40 μg/ml, Nivo 40 μg/ml (CTCs + CD45+ cells), Lenva 100 ng/ml, Regor 80 μg/ml (CTCs); for Drug response score, conc. 3: conc. 3: Pembro 100 μg/ml, Nivo 80 μg/ml (CTCs + CD45+ cells), Lenva 200 ng/ml, Regor 120 μg/ml (CTCs); for Drug response score, conc. 4: conc. 4: Pembro 160 μg/ml, Nivo 160 μg/ml (CTCs + CD45+ cells), Lenva 400 ng/ml, Regor 160 μg/ml (CTCs); for effectiveness on Circulating Tumour Cells under laboratory conditions / Drug sensitivity as calculated by the assay (interpretation of Drug Response Scores): rectal cancer CTCs; for Drug sensitivity as calculated by the assay (interpretation of Drug Response Scores): Table 11
Experimental: (§1) CD45^+ cells and circulating tumour cells (CTCs) were isolated from a blood sample provided by each subject.
(§2) CD45 separation was performed by adding human CD45 microbeads (50 μl/ml blood), incubating for 15 minutes at 4° C. and then processing using an AutoMACS machine. This separates the blood sample into CD45^+ and CD45^−cells in 2 separate falcons. The falcon tubes are then centrifuged at 1200 rpm for 5 minutes.
(§3) The supernatant was removed from the CD45^+falcon tube, and the cells resuspended in DMEM with 2 μl Cell Tox, 2 μl MT and 2 μl MT. 20 μl of the resuspended CD45^+ cells was then plated in each well which will contain an immunotherapy treatment.
(§4) The supernatant was removed from the CD45^−falcon tube, and the CD45^−cells contacted with 100 μl of FcR block and 100 μl of CD326 (EpCAM) MicroBeads, followed by incubation at […] 4° C. for 30 minutes. The CD45^−cells were then processed using an AutoMACS machine to separate the EpCAM positive and negative cells into 2 separate falcon tubes. The EpCAM-cells were discarded. The supernatant was removed from the EpCAM^+ cells, and the cells resuspended in DMEM with 2 μl Cell Tox, 2 μl MT and 2 μl MT. 20 μl of the resuspended pellet was then added to all sample wells excluding a blank. After all wells are added to, a cell count was conducted on the […] to determine the number of circulating tumour cells (CTCs).
(§5) The different cell types were each divided equally into populations, depending on the number of drugs/concentrations to be tested and plated on a cell-culture plate pre-coated with a scaffold of polycaprolactone (PCL) electrospun fibres and incubated at 37° C., 5% CO2, for 5 to (typically 10) minutes to facilitate cell attachment. After attachment, an initial imaging step was carried out using the RealTime-Glo™ MT assay from Promega (Catalogue No. G9711)) and the CellTox™ Green Cytotoxicity Assay (Promega, Catalogue No. G8741), carried out according to manufacturer's instructions. Following this initial imagining, the immunotherapeutic and/or chemotherapeutic agents were added to the cell populations as indicated below. After 10 minutes, the imagining step was repeated. The cell populations were then incubated at 37° C., 5% CO2 for 48 hours. The imaging step was then repeated. The cell populations were then re-dosed with the same immunotherapeutic and/or chemotherapeutic agents as indicated below, and incubated at 37° C., 5% CO2 for a further 48 hours. After this second 48 hour incubation, the imagining step was repeated for a final time.
(§6) At the end of this culture period, dose response scores were calculated using a normalized drug response metric as described in Gupta et al. (Communications Biology volume 3, Article number: 42 (2020), https://doi.org/10.1038/s42003-020-0765-z). The start readout for a given immunotherapeutic or chemotherapeutic agent at a given concentration was the to readout for said immunotherapeutic or chemotherapeutic agent at a specified concentration. The end readout for a given immunotherapeutic or chemotherapeutic agent at a given concentration was the final timepoint reading (t96h) for said immunotherapeutic or chemotherapeutic agent at a specified concentration.
(§7) The positive control start readout for a given drug/concentration was the to readout for the corresponding drug at a specified concentration. The positive control end readout for the corresponding drug at a specified concentration was the final timepoint reading (t96h) for the corresponding blank well.
(§8) The negative control start and end readouts for a given immunotherapeutic or chemotherapeutic agent at a given concentration were the to and final timepoint reading (t96h) respectively for blank cell or blank immuno cell well respectively.
(§9) The sensitivity or resistance of a subject's cancer to a given immunotherapeutic or chemotherapeutic agent was determined based on the calculated drug response score as shown in Table 2. […]

[2] = tested on: Circulating tumour cells (CTCs) from a patient with GI cancer (Cholangio Carcinoma, stage 4); assay: Drug response score assay on blood sample, Example 9; design: key to Drug response score from blood sample, conc. 1 / Drug response score from blood sample, conc. 2 / Drug response score from blood sample, conc. 3 / Drug response score from blood sample, conc. 4: normalized drug response metric per Gupta et al. 2020; details: for effectiveness on Circulating Tumour Cells under laboratory conditions: GI cancer (Cholangio Carcinoma) blood sample; for Drug response score from blood sample, conc. 1: conc. 1 of each drug as in Table 27; for Drug response score from blood sample, conc. 1 / Drug response score from blood sample, conc. 2 / Drug response score from blood sample, conc. 3 / Drug response score from blood sample, conc. 4: t96h; for Drug response score from blood sample, conc. 2: conc. 2 of each drug as in Table 27; for Drug response score from blood sample, conc. 3: conc. 3 of each drug as in Table 27; for Drug response score from blood sample, conc. 4: conc. 4 of each drug as in Table 27; for Drug sensitivity as calculated by the assay, Blood: interpretation based on Drug Response Scores; for Drug response score from blood sample, conc. 1 / Drug response score from blood sample, conc. 2 / Drug response score from blood sample, conc. 3 / Drug response score from blood sample, conc. 4 / Drug sensitivity as calculated by the assay, Blood: blood sample
Experimental: as §1, §2, §3, §4, §5, §6, §7, §8, §9

[3] = tested on: Circulating Tumour Cells (CTCs) from a patient with colon cancer (sigmoid colon cancer); assay: Drug response score assay on CTCs from blood, Example 8; design: key to Drug response score, conc. 1 / Drug response score, conc. 2 / Drug response score, conc. 3 / Drug response score, conc. 4: normalized drug response metric (Gupta et al. 2020); details: for Drug response score, conc. 1: conc. 1 of each drug as in Table 24; for Drug response score, conc. 1 / Drug response score, conc. 2 / Drug response score, conc. 3 / Drug response score, conc. 4: CTCs, t96h; for Drug response score, conc. 2: conc. 2 of each drug as in Table 24; for Drug response score, conc. 3: conc. 3 of each drug as in Table 24; for Drug response score, conc. 4: conc. 4 of each drug as in Table 24; for Drug sensitivity as calculated by the assay (interpretation of Drug Response Scores): sigmoid colon cancer CTCs, Table 26
Outline: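 EpCAM+ CTCs isolated from patient blood by CD45 depletion then EpCAM bead selection, and imaged with RealTime-Glo MT viability and CellTox Green cytotoxicity reagents. Agents added, cells cultured at 37° C, 5% CO2 for 48 h, re-dosed, then a further 48 h. Score calculated by normalized drug response metric from t0 and t96h readouts against blank-well controls.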

[4] = tested on: Circulating Tumour Cells (CTCs) from a patient with head and neck cancer (squamous cell carcinoma); assay: Drug response score assay on CTCs from blood, Example 6; details: for Drug response score, conc. 1: conc. 1: Ifos 0.125 μg/ml, Gemcit 2 μg/ml, Doxo 10 ng/ml, Etop 1 μg/ml, Metho 0.5 μg/ml, Capecit 200 μg/ml, Vinor 20 μg/ml; for Drug response score, conc. 1 / Drug response score, conc. 2 / Drug response score, conc. 3 / Drug response score, conc. 4: CTCs, t96h; for Drug response score, conc. 2: conc. 2: Ifos 0.25 μg/ml, Gemcit 10 μg/ml, Doxo 30 ng/ml, Etop 4 μg/ml, Metho 1 μg/ml, Capecit 300 μg/ml, Vinor 40 μg/ml; for Drug response score, conc. 3: conc. 3: Ifos 5 μg/ml, Gemcit 20 μg/ml, Doxo 90 ng/ml, Etop 20 μg/ml, Metho 2 μg/ml, Capecit 400 μg/ml, Vinor 80 μg/ml; for Drug response score, conc. 4: conc. 4: Ifos 10 μg/ml, Gemcit 40 μg/ml, Doxo 270 ng/ml, Etop 100 μg/ml, Metho 4 μg/ml, Capecit 600 μg/ml, Vinor 200 μg/ml; for effectiveness on Circulating Tumour Cells under laboratory conditions / Drug sensitivity as calculated by the assay (interpretation of Drug Response Scores): head and neck cancer CTCs; for Drug sensitivity as calculated by the assay (interpretation of Drug Response Scores): Table 20
Experimental: as §1, §2, §4, §5, §6, §7, §8
The sensitivity or resistance of a subject's cancer to a given immunotherapeutic or chemotherapeutic agent was determined based on the calculated drug response score as shown in Table 2.
Blood samples from a patient with head and neck cancer (squamous cell carcinoma) were received on 11 Mar. 2022 and tested using a 7 drug panel.

Compound | Drug response score, conc. 1 [1] | Drug response score, conc. 2 [1] | Drug response score, conc. 3 [1] | Drug response score, conc. 4 [1] | effectiveness on Circulating Tumour Cells under laboratory conditions [1] | Drug sensitivity as calculated by the assay (interpretation of Drug Response Scores) [1] | effectiveness on Circulating Tumour Cells under laboratory conditions [2] | Drug response score from blood sample, conc. 1 [2] | Drug response score from blood sample, conc. 2 [2] | Drug response score from blood sample, conc. 3 [2] | Drug response score from blood sample, conc. 4 [2] | Drug response score, conc. 1 [3] | Drug response score, conc. 2 [3] | Drug response score, conc. 3 [3] | Drug sensitivity as calculated by the assay (interpretation of Drug Response Scores) [3] | Drug response score, conc. 1 [4] | Drug response score, conc. 2 [4] | Drug response score, conc. 3 [4] | Drug response score, conc. 4 [4] | effectiveness on Circulating Tumour Cells under laboratory conditions [4] | other results
COc1cc2nccc(Oc3ccc(NC(=O)NC4CC4)c(Cl)c3)c2cc1C(N)=O [Lenvatinib] | 2.0109 | 1.6409 | 0.8991 | 2.0235 | not effective | Resistant | S+ | 0.2851 | 0.3155 | 0.4097 | 0.6214 | – | – | – | – | – | – | – | – | – | Drug sensitivity as calculated by the assay, Blood [2]: S+
CC(=O)O[C@H]1C(=O)[C@@]2(C)[C@H]([C@H](OC(=O)c3ccccc3)[C@]3(O)C[C@H](OC(=O)[C@H](O)[C@@H](NC(=O)c4ccccc4)c4ccccc4)C(C)=C1C3(C)C)[C@]1(OC(C)=O)CO[C@@H]1C[C@@H]2O [Paclitaxel] | – | – | – | – | – | – | S+ | 0.2346 | 0.5329 | 0.5298 | 0.756 | −0.8976 | −0.1500 | −0.5818 | Sensitive (S++) | – | – | – | – | – | Drug response score, conc. 4 [3]: −0.8009
COc1cc([C@@H]2c3cc4c(cc3[C@@H](O[C@@H]3O[C@@H]5CO[C@@H](C)O[C@H]5[C@H](O)[C@H]3O)[C@H]3COC(=O)[C@H]23)OCO4)cc(OC)c1O [Etoposide] | – | – | – | – | – | – | – | – | – | – | – | −0.4099 | −0.6338 | −0.6648 | Sensitive (S++) | 0.9372 | 0.6295 | 0.9862 | 0.5135 | Sensitive S+ | Drug response score, conc. 4 [3]: 0.1129; Drug sensitivity as calculated by the assay (interpretation of Drug Response Scores) [4]: Sensitive (S+)
COc1cccc2c1C(=O)c1c(O)c3c(c(O)c1C2=O)C[C@@](O)(C(=O)CO)C[C@@H]3O[C@H]1C[C@H](N)[C@H](O)[C@H](C)O1 [Doxorubicin] | – | – | – | – | – | – | – | – | – | – | – | −0.0102 | −0.0852 | −0.2828 | Sensitive (S++) | 0.7699 | 0.9452 | 0.6229 | 0.7995 | Sensitive S+ | Drug sensitivity as calculated by the assay (interpretation of Drug Response Scores) [4]: Sensitive (S+)
Pembrolizumab | 0.6167 | 0.4053 | 0.9748 | 0.7712 | Sensitive S+ | Sensitive (S+) | S+ | 0.00068 | 0.1572 | 1.041 | 0.6989 | – | – | – | – | – | – | – | – | – | Drug sensitivity as calculated by the assay, Blood [2]: S+
Nivolumab | 0.4990 | 0.6429 | 0.6261 | 1.0807 | Sensitive S+ | Sensitive (S+) | – | 1 | 0.2783 | 1.061 | 1.046 | – | – | – | – | – | – | – | – | – | –
O=P1(NCCCl)OCCCN1CCCl (centres unmarked) [Ifosfamide] | – | – | – | – | – | – | – | – | – | – | – | – | – | – | – | 0.7257 | 0.2439 | 0.9228 | 0.3682 | Sensitive S+ | Drug sensitivity as calculated by the assay (interpretation of Drug Response Scores) [4]: Sensitive (S+)
